In patent EP0022634A1, “Acylated indole derivatives, processes for their preparation and pharmaceutical compositions and drugs comprising them” (TEIJIN LIMITED, priority 1979, dated 1981):
≈ marks a conversion by molar mass, not a printed value.

Key:
[1] = test system: mucous membrane of the stomach; test: Action of causing trouble to the mucous membrane of the stomach (ulcer index); assay type: in vivo, Male S.D. rats; conditions: for Incidence / Ulcer Index (mm ± S.E.): fasted rats
Experimental: Male S.D. rats (7 weeks old) were caused to fact for 24 hours while allowing them to drink water freely. A test compound dissolved in propylene glycol was orally administered to these rats, and these rats were kept while causing them to fast. Then, the rats were knocked out to death, and lesions generated in the stomach were measured in the following manner.
Ten minutes before killing the rats, 1% Evans blue was intravenously injected to the rats in a dose of 0.5 ml/rat to stain their body. Then, the rats were knocked out to death, and the stomack was taken out from each rat. 12 ml of 1% formalin was injected into the stomack to inflate it. The stomach was then dipped for more than 10 minutes in a 1% formalin solution, and fixed. After fixing, the stomach was incised along the glandular portion, and the length of a dye-leaked portion that occurred in the stomach was measured under a solid microscope, and defined as the ulcer index (mm).
For details of the test on the action of causing trouble to the mucous membrane of the stomach, see E. Adami, E. Marazzi-Uberti, and C. Turba, Arch, int. Pharmacadyn., 147, 113 (1964).

platelet aggregation [2] = test: in vitro platelet aggregation inhibiting activity (sodium arachidonate as aggregating agent); assay type: cell-based; conditions: Cavia porcellus, Platelet, guinea pigs PRP, final concentration 0.1 millimole, minimum final concentration whose inhibiting rate exceeded 50 %, read-out: IC50
Experimental: The platelet aggregation inhibiting activities in vitro of test drugs including the acylated indole derivatives of this invention were assayed using guinea pigs PRP.
As an aggregating agent, sodium arachidonate having a final concentration of 0.1 millimole was used.
The citrated blood was centrifuged at 1000 rpm for 10 minutes at room temperature, and the supernatant liquid (PRP) was separated.
The resulting PRP was stored at room temperature, and used as early as possible. PRP stored for more than 4 hours was not used.
A compound having a free carboxylic acid as a residue, such as Indomethacin and Ibprofen, was dissolved in O.lM NaHC03 to provide a sodium salt solution having a concentration of 10 mg/ml. The solution was similarly diluted with physiological saline to prepare a solution of a test drug.
The solution was diluted with physiological saline to form a 1mM solution which was used in the test.
50 µℓ of physiological saline and 50 µℓ of the aggregating agent solution were added to 400 µℓ of PRP which had been warmed in a cuvette at 37°C in an aggregometer to aggregate the platelet. The aggregation curve was recorded for 3 minutes by an aggregometer (a product of Bryston Company). The maximum degree of aggregation in this platelet aggregation was defined as the maximum degree of aggregation in the blank.
Then, 50 µℓ of a 1mM solution of sodium arachidonate was added, and the platelet aggregation curve was recorded in the same way as in (1) above. From the curve, the maximum degree of aggregation was calculated, and the inhibiting rate was calculated in accordance with the following equation. Maximum degree of aggregation Inhibiting 100 - in the Ibprofen-added system 100 rate (%) Maximum degree of aggregation in the blank
If these inhibiting rates are not attained, the concentration of the solution of sodium arachidonate is not suitable, and therefore, its concentration should be re-adjusted, and the test shall be performed again.
50 µℓ of the test compound solution was added to 400 µℓ of PRP, and the mixture was pre-incubated in the same way as in(2) above. Then, 50 µℓ of the solution of sodium arachidonate having its concentration adjusted in (2) was added, and the aggregation curve was recorded for 3 minutes. The maximum degree of aggregation of platelet within this period was measured, and the rate of inhibition was calculated from the following equation. […] Maximum degree of aggregation Inhibiting _ 100 - in the drug-added system x 100 rate (%) Maximum degree of aggregation in the blank
For details of the in vitro platelet aggregation inhibiting test, see H. M. Davis, J. Phyllis, K. Paul and W. Terry: Thromb. […] Haemos.

platelet aggregation [3] = test: as above; assay type: cell-based, guinea pigs; conditions: general statement on investigations of the present inventors; test not specified
platelet aggregation [4] = test: extra vivo platelet aggregation inhibiting activity after oral administration, sodium arachidonate as aggregating agent; assay type: in vivo, guinea pigs; conditions: Cavia porcellus, 0.03 mM sodium arachidonate; for inhibition at 1 mg/kg: oral dosage 1 mg/kg; for inhibition at 10 mg/kg: oral dosage 10 mg/kg
Experimental: (§1) The platelet aggregation inhibiting activities extra vivo of drugs sampled at random were examined using guinea pigs.
(§2) The drugs were used dissolved in propylene glycol to a concentration of 1 mg/ml (when the dosage was 1 mg/kg), 10 mg/ml (when the dosage was 10 mg/kg), and 30 mg/ml (when the dosage was 30 mg/kg). The drugs were administered orally to male Hartley guinea pigs (three in a group) having a body weight of 300 to 350 g. Propylene glycol was administered to a control group.
(§3) One hour, or 4 hours after the administration, citrated blood was taken out from the subject by cardiac puncture.
(§4) The guinea pigs were caused to fast overnight before use.
(§5) The inhibiting rate of the test drugs was measured as follows: • 450 µℓ of PRP was put into a cuvette of an aggregometer, and then 50 µℓ of the aggregating agent was added. The aggregation curve was recorded for 3 minutes, and the maximum degree of aggregation was measured. As a blank, the maximum degree of aggregation of PRP of the group of guinea pigs to which propylene glycol had been administered was measured. The rate of inhibition was calculated from the following equation. [formula]
(§6) As the aggregating agent, 0.03 mM (final concentration sodium arachidonate and 5 µg/ml (final concentration) collagen floating solution were used.
For details of the extra vivo platelet aggregation inhibiting test, see Davis. H. M., Phyllis, J., Paul, K and Terry, W.: Thromb. […] Haemos.

platelet aggregation [5] = test: extra vivo platelet aggregation inhibiting activity after oral administration, collagen as aggregating agent; assay type: in vivo, guinea pigs; conditions: Cavia porcellus, po
Experimental: The collagent floating solution made by Hormone Company of west Germany was diluted with physiological saline to a concentration of 100 µg/ml for use in the test.
as §1, §2, §3, §4, §5, §6
For details of the extra vivo platelet aggregation inhibiting test, see Davis. H. M., Phyllis, J., Paul, K and Terry, W.: Thromb. Res. 11, 217-226 (1977) and Anderson R. E. and Foulks J. G.: Thromb. Haemos. 36, 343-359 (1976).

[6] = oral dosage 400 mg/kg in propylene glycol
[7] = oral dosage 100 mg/kg in propylene glycol
[8] = blood taken 1 hour after administration, read-out: Rate of inhibition of platelet aggregation, Sodium arachidonate, After 1 hour
[9] = blood taken 4 hours after administration, read-out: Rate of inhibition of platelet aggregation, Sodium arachidonate, After 4 hours
[10] = 1 h, read-out: Rate of inhibition of platelet aggregation, Collagen, After 1 hour
[11] = 4 h, read-out: Rate of inhibition of platelet aggregation, Collagen, After 4 hours
[12] = oral dosage 200 mg/kg in propylene glycol

SMILES | Incidence [1, 6] [%] | Ulcer Index (mm ± S.E.) [1, 6] [mm] | IC50 (platelet aggregation [2]) [µg/mL] | inhibition at 10 mg/kg (platelet aggregation [4]; [8]) [%] | inhibition at 10 mg/kg (platelet aggregation [4]; [9]) [%] | inhibition at 10 mg/kg (platelet aggregation [5]; [10]) [%] | inhibition at 10 mg/kg (platelet aggregation [5]; [11]) [%] | further results
CCCCCC(C)n1c(C)c(C(=O)c2ccccc2)c2ccccc21 (stereo not drawn) [(706), 3-Benzoyl-l-(2-heptyl)-2-methylindole] | 16.7 | 0.1 | – | – | – | – | – | –
CC(C)c1[nH]c2ccccc2c1C(=O)c1cccnc1 [Comparison 3, reference compound] | 100 | 7.9 ± 2.3 | 0.075 (≈ 0.284 µM) | – | – | – | – | Incidence [1, 7]: 66.7%; Ulcer Index (mm ± S.E.) [1, 7]: 1.5 ± 0.6 mm
CCCCC(C)n1c(C)c(C(=O)c2ccccc2)c2ccccc21 (centres unmarked) [(705), 3-Benzoyl-1-(2-hexyl)-2-methylindole] | 0 | 0 | – | – | – | – | – | –
CC(C)c1[nH]c2ccccc2c1C(=O)c1cccnc1 [drawing 4, reference compound] | – | – | – | – | – | – | – | action of inhibiting platelet aggregation (platelet aggregation [3]): has an action of inhibiting platelet aggregation; tendency to induce ulcer formation ([1]; general statement on investigations of the present inventors, test not specified): unnegligible tendency to induce ulcer formation
COCC(C)n1c(C)c(C(=O)c2ccccc2)c2ccccc21 (centres unmarked) [(300), 3-Benzoyl-1-(1-methoxy-2-propyl)-2-methylindole] | 66.7 | 1.4 ± 0.5 | 0.055 (≈ 0.179 µM) | – | – | – | – | inhibition at 1 mg/kg (platelet aggregation [4]; [8]): 51.3%; inhibition at 1 mg/kg (platelet aggregation [4]; [9]): 67.5%; inhibition at 1 mg/kg (platelet aggregation [5]; [10]): 100%; inhibition at 1 mg/kg (platelet aggregation [5]; [11]): 71.4%; Incidence [1, 7]: 40%; Ulcer Index (mm ± S.E.) [1, 7]: 1.1 ± 0.5 mm; Incidence [1, 12]: 55.6%; Ulcer Index (mm ± S.E.) [1, 12]: 1.2 ± 0.3 mm
Cc1c(C(=O)c2ccccc2)c2ccccc2n1C(C)CSc1ccccc1 (centres unmarked) [(401), 3-Benzoyl-2-methyl-1-(1-phenylthio-2-propyl)-indole] | – | – | 0.25 (≈ 0.648 µM) | 100 | 100 | 100 | 100 | –
Cc1c(C(=O)c2ccccc2)c2cc(O)ccc2n1C(C)CO (centres unmarked) [(117), 3-Benzoyl-5-hydroxy-1-(1-hydroxy-2-propyl)-2-methylindole] | – | – | 0.25 (≈ 0.808 µM) | 100 | 8.6 | 72.1 | 2.2 | –
Cc1c(C(=O)c2ccccc2)c2ccccc2n1C(C)CCO (stereo not drawn) [(105), 3-Benzoyl-l-(4-hydroxy-2-butyl)-2-methylindole] | – | – | 0.075 (≈ 0.244 µM) | 100 | 100 | 100 | 100 | –
CCC(COC(C)=O)n1c(C)c(C(=O)c2ccccc2)c2ccccc21 (centres unmarked) [(205), 1-(1-acetoxy-2-butyl)-3-benzoyl-2-methylindole] | – | – | 0.1 (≈ 0.286 µM) | 100 | 85.3 | 100 | 93.8 | –
CCOCC(C)n1c(C)c(C(=O)c2ccccc2)c2ccccc21 (centres unmarked) [(302), 3-Benzoyl-1-(1-ethoxy-2-propyl)-2-methylindole] | 50 | 0.9 ± 0.3 | 0.055 (≈ 0.171 µM) | 100 | 100 | – | – | Incidence [1, 12]: 33.3%; Ulcer Index (mm ± S.E.) [1, 12]: 0.3 ± 0.2 mm
CCOCC(CC)n1c(C)c(C(=O)c2ccccc2)c2ccccc21 (centres unmarked) [(312), 3-Benzoyl-1-(1-ethoxy-2-butyl)-2-methylindole] | – | – | 0.25 (≈ 0.745 µM) | 100 | 100 | 100 | 100 | –
CC(=O)C(C)n1c(C)c(C(=O)c2ccccc2)c2ccccc21 (stereo not drawn) [(800), 3-Benzoyl-2-methyl-l-(3-oxo-2-butyl)indole] | – | – | 0.05 to 0.1 (≈ 0.164 to 0.327 µM) | 100 | 66.7 | 100 | 48.4 | –
